In patent publication US8754038B2, “Template-fixed peptidomimetics with CCR10 antagonistic activity” (priority 2009, dated 2014):
Numbered stars: 1 amine (or outer) side, 2 acyl side, 3 side chain; on linkers, the order of the positions; unused ones are H or OH. Square brackets hold non-standard residues; d marks the D form. Side chains are listed from the residue outwards. Peptide text beside a SMILES is read from it. * marks the point of attachment. Trp(5-OH) = N[C@@H](Cc1c[nH]c2ccc(O)cc12)C(=O)O; Oic = O=C(O)[C@@H]1C[C@@H]2CCCC[C@@H]2N1; Phe(4-CN) = N#Cc1ccc(C[C@H](N)C(=O)O)cc1; Pro(cis-4-F) = O=C(O)[C@@H]1C[C@H](F)CN1; Thz(5,5-Me2) = CC1(C)SCN[C@@H]1C(=O)O; cisHyp = O=C(O)[C@@H]1C[C@H](O)CN1; Hyp = O=C(O)[C@@H]1C[C@@H](O)CN1; Benzyl(4-Br) = Brc1ccc(C*)cc1; Ac5c = NC1(C(=O)O)CCCC1; Dab = NCC[C@H](N)C(=O)O; CO = O=C([*:1])[*:2]; NHCH2CH2OMe = COCCN*; Bn = c1ccc(C*)cc1

What was measured:
human CCR10 [1] = biological target: T1, human CCR10 (Homo sapiens, UniProt P46092); experiment: Chemotaxis assay (CCR10-transfected 300-19 cells, CCL27 gradient); format: cell-based; details: CCR10-transfected 300-19 murine pre-B cells; 30 nM CCL27 gradient
T1 construct: expressed in transfected cells
T1 sequence (P46092 1-362): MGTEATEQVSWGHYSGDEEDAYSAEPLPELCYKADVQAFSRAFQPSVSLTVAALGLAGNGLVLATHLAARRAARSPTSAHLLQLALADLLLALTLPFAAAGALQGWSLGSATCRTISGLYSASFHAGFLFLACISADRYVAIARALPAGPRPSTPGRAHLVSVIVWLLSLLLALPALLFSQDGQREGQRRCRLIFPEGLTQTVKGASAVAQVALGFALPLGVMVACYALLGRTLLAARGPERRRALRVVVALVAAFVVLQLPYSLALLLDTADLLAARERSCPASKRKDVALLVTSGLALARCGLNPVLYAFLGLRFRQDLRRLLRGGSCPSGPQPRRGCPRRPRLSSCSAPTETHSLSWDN
Method: (§1) Lyophilized peptides were weighed on a Microbalance (Mettler MX5) and dissolved in aqueous 90% DMSO to a final concentration of 10 mM unless otherwise stated. Stock solutions were kept at +4° C., and protected from light.
(§2) Peptides were assayed for CCR10 antagonism in a calcium flux assay and in a chemotaxis assay using a mouse pre-B cell line 300-19 stably transfected with human CCR10, and with human CCL27 as agonist.
The chemotactic response of CCR10-transfected 300-19 murine pre-B cells to a gradient of CCL27 (CTACK) was measured using disposable Transwell® assay plates from Costar (5 μm pore size) according to the protocol of the manufacturer. Briefly, cells were grown under sterile conditions at 37° C. with 5% CO2 in flasks containing RPMI+5% FCS, glutamine, penicillin/streptomycin (all media components were from Life Technologies) and the appropriate selection antibiotics (Puromycin, G418 or Tetracycline). For the assay, cells were pelleted by centrifugation, washed once in Dulbecco's phosphate buffered saline (DPBS), and resuspended to give 1×10^6 cells/ml in RPMI+0.5% bovine serum albumin (BSA). 100 μl of cell suspension was applied to the top of the assay filter. The β-hairpin peptidomimetics, diluted in the same assay medium, were added to both top and bottom chambers. The cells were allowed to migrate for 4-6 hours at 37° C. into the bottom chamber of the assay plate containing 30 nM of CCL27 (RnD systems). Migrated cells were counted using a FACS cytometer (Cytomics FC500, Beckman Coulter). Data normalization was performed using the number of any cells that had migrated in the absence of the β-hairpin peptidomimetic and the number of cells that have randomly migrated in absence of CCL27 [these values were taken as 100% (no inhibitory activity) and 0%, respectively]. From a range of compound concentrations IC50 were determined using Prism5 (GraphPad software).

human CCR10 [2] = biological target: T1, human CCR10; experiment: Calcium flux assay (CCR10 antagonism, CCL27 as agonist); format: cell-based; details: CCR10 transfected 300-19 murine pre-B cells; CCL27 30 nM
Method: as §1, §2
The calcium flux release was assessed using CCR10 transfected 300-19 murine pre-B cells. These cells were labeled as a batch with Calcium4 Reagent (Molecular Devices, Sunnyvale, Calif.) in HBSS buffer for 60 min.
After dispensing 8×10^4 cells in each well of a 384-well black plate, a concentrated solution of the β-hairpin peptidomimetics of this invention in HBSS+0.1% BSA+0.1% DMSO (final concentration) was added to the cells. The entire plate was centrifuged and placed in a Flexstation II (Molecular Devices) automated plate reader. After reading a 20 s baseline, the Flexstation dispensed CCL27 (RnD systems) at a final concentration of 30 nM in HBSS+0.1% BSA onto the cells and calcium flux was measured for an additional 70 s.
Alternatively a FIipR384 (Molecular Devices) was used for read out of the 384-well plates. In this case about 8×10^4 cells were placed in each well, centrifuged, placed in the FlipR and after 5 s of baseline reading, the β-hairpin peptidomimetics in HBSS+0.1% BSA+0.1% DMSO (final concentration) were added. After an incubation time of 5 min, the CCL27 solution was added to the mixture and the calcium flux was measured for 200 s.
The maximum signal was determined from control wells without inhibitor. Percentage of inhibition was calculated from a range of compound concentrations, which were subsequently used to calculate IC50 values (Softmax Pro, Molecular Devices). All steps were carried out at room temperature.

Structure (SMILES) | IC50 (human CCR10 [1]) [nM] | IC50 (human CCR10 [2]) [nM]
COCCNC(=O)NCC[C@@H]1NC(=O)[C@H](Cc2c[nH]c3ccccc23)NC(=O)C2(CCCC2)NC(=O)[C@H](Cc2c[nH]c3ccccc23)NC(=O)[C@@H]2C[C@@H]3CCCC[C@@H]3N2C(=O)[C@H]2CCCN2C1=O [Ex. 73, cyclo(-Trp-Cyp-Trp-Dab(MeO(CH2)2NHCO)-^DPro-Oic-)] (cyclo([Ac5c]W[Dab]([CO-NHCH2CH2OMe])[dP][Oic]W)) | 5.3 | 24.2 ± 24.5
O=C1NC2(CCCC2)C(=O)N[C@@H](Cc2c[nH]c3ccccc23)C(=O)N[C@@H](CO)C(=O)N2CCC[C@@H]2C(=O)N2C[C@H](OCc3ccccc3)C[C@H]2C(=O)N[C@H]1Cc1c[nH]c2ccccc12 [compound 46, cyclo(-Trp-Cyp-Trp-Ser-^DPro-Hyp(Bn)-)] (cyclo([Ac5c]WS[dP][Hyp](Bn)W)) | 35.4 | 12.6 ± 9
N#Cc1ccc(C[C@@H]2NC(=O)[C@@H]3C[C@@H](OCc4ccc(Br)cc4)CN3C(=O)[C@H]3CCCN3C(=O)[C@H](CO)NC(=O)[C@H](Cc3c[nH]c4ccccc34)NC(=O)C3(CCCC3)NC2=O)cc1 [compound 55, cyclo(-Phe(4CN)-Cyp-Trp-Ser-^DPro-Hyp(4BrBn)-)] (cyclo([Ac5c]WS[dP][Hyp](Benzyl(4-Br))[Phe(4-CN)])) | 0.6 | 5.3 ± 3.9
NCC[C@@H]1NC(=O)[C@H](Cc2c[nH]c3ccccc23)NC(=O)C2(CCCC2)NC(=O)[C@H](Cc2c[nH]c3ccccc23)NC(=O)[C@@H]2C[C@@H](OCc3ccc(Br)cc3)CN2C(=O)[C@H]2CCCN2C1=O [compound 56, cyclo(-Trp-Cyp-Trp-Dab-^DPro-Hyp(4BrBn)-)] (cyclo([Ac5c]W[Dab][dP][Hyp](Benzyl(4-Br))W)) | 2.5 | 11.6 ± 9.2
NCC[C@@H]1NC(=O)[C@H](Cc2c[nH]c3ccccc23)NC(=O)C2(CCCC2)NC(=O)[C@H](Cc2c[nH]c3ccccc23)NC(=O)[C@@H]2C[C@H](OCc3ccccc3)CN2C(=O)[C@H]2CCCN2C1=O [Ex. 51, cyclo(-Trp-Cyp-Trp-Dab-^DPro-(4S)-Hyp(Bn)-)] (cyclo([Ac5c]W[Dab][dP][cisHyp](Bn)W)) | 60.1 | 260 ± 154
NCC[C@@H]1NC(=O)[C@H](Cc2c[nH]c3ccccc23)NC(=O)C2(CCCC2)NC(=O)[C@H](Cc2c[nH]c3ccccc23)NC(=O)[C@@H]2C[C@H](F)CN2C(=O)[C@H]2CCCN2C1=O [Ex. 4, cyclo(-Trp-Cyp-Trp-Dab-^DPro-Pro((4S)F)—)] (cyclo([Ac5c]W[Dab][dP][Pro(cis-4-F)]W)) | 42 | 860 ± 382
CC1(C)SCN2C(=O)[C@H]3CCCN3C(=O)[C@H](CCCNC(=N)N)NC(=O)[C@H](Cc3c[nH]c4ccccc34)NC(=O)C3(CCCC3)NC(=O)[C@H](Cc3c[nH]c4ccc(O)cc34)NC(=O)[C@@H]21 [Ex. 29, cyclo(-Trp(5OH)-Cyp-Trp-Arg-^DPro-Thz(5,5Me2)-)] (cyclo([Ac5c]WR[dP][Thz(5,5-Me2)][Trp(5-OH)])) | 109 | 214 ± 106
